Common to all, as to assay: growth inhibition of complemented yeast YUG37::LbCYP51B, absorbance at […] nm
Holding throughout (assay type): cell-based, Plenodomus biglobosus (Leptosphaeria biglobosa)
Conditions in all cases: whole-cell growth; SD GAL + RAF with doxycycline (native CYP51 repressed), 30 °C, 6 days; SD of two biological replicates

For assay [1], the system named is T1, LbCYP51B.
T1 construct: gene CYP51B; protein identical in all 8 isolates; gene 1642 bp with one 58 bp intron

Assay [2] deals with T1, LbCYP51B. This is another data set of the same source.
For assay [3], the system named is T1, LbCYP51B. This is another data set of the same source.

With `C[Si](Cn1cncn1)(c1ccc(F)cc1)c1ccc(F)cc1` [flusilazole], the Flusilazole in assay [1] is listed as 0.032 (0.0056) µg ml^−1.

`OC(Cc1ccccc1Cl)(Cn1cncn1)C1(Cl)CC1` (stereo not drawn) [prothioconazole-desthio]: in assay [2], the Prothioconazole-desthio was 0.0004 (0.0002) µg ml^−1.

As to `CC(C)(C)C(O)(CCc1ccc(Cl)cc1)Cn1cncn1` (stereo not drawn) [tebuconazole], in assay [3], the Tebuconazole is given as 0.0062 (0.0005) µg ml^−1.
